Earlier results in publication PMC9516332 (Frontiers in Oncology, 2022).
Read-outs that look alike come from different tables or passages of the source.

Tests used:
[1] = target: panel of 255 wild-type kinases (Homo sapiens, UniProt Q9H422); conditions: kinase HIPK3, 1 µmol/L single concentration, cited from earlier work
[2] = target: panel of 255 wild-type kinases (Homo sapiens, UniProt P49137); conditions: kinase MAPKAPK2, 1 µmol/L single concentration, cited from earlier work
[3] = target: panel of 255 wild-type kinases (Homo sapiens, UniProt Q8IU85); conditions: CaMK1δ kinase assay, 1 µmol/L single concentration, cited from earlier work
[4] = target: T1, panel of 255 wild-type kinases (Homo sapiens, UniProt Q13188); conditions: MST2, 1 µmol/L single concentration, cited from earlier work
T1 sequence (Q13188 1-491): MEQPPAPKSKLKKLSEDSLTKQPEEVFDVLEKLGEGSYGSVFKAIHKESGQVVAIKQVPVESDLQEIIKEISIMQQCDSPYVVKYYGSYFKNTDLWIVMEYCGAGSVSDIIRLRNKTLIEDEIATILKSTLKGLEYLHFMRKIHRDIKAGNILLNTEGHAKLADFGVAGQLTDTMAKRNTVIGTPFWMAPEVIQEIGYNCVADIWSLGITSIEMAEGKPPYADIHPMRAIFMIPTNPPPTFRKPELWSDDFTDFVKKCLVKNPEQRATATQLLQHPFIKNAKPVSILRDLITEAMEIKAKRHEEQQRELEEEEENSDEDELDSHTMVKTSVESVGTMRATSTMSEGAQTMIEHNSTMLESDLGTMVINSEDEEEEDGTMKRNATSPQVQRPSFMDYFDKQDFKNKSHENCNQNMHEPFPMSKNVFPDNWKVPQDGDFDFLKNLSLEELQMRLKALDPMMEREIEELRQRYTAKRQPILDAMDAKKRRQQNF

[5] = target: panel of 255 wild-type kinases (Homo sapiens, UniProt Q9H0K1); conditions: kinase QIK, 1 µmol/L single concentration, cited from earlier work
[6] = target: panel of 255 wild-type kinases (Homo sapiens, UniProt P51451); conditions: BLK kinase assay, 1 µmol/L single concentration, cited from earlier work
[7] = target: panel of 255 wild-type kinases (Homo sapiens, UniProt Q14289); conditions: kinase PYK2, 1 µmol/L single concentration, cited from earlier work
[8] = target: T2, panel of 255 wild-type kinases (Homo sapiens, UniProt Q13976); conditions: kinase PGK, 1 µmol/L single concentration, cited from earlier work
T2 sequence (Q13976 1-671): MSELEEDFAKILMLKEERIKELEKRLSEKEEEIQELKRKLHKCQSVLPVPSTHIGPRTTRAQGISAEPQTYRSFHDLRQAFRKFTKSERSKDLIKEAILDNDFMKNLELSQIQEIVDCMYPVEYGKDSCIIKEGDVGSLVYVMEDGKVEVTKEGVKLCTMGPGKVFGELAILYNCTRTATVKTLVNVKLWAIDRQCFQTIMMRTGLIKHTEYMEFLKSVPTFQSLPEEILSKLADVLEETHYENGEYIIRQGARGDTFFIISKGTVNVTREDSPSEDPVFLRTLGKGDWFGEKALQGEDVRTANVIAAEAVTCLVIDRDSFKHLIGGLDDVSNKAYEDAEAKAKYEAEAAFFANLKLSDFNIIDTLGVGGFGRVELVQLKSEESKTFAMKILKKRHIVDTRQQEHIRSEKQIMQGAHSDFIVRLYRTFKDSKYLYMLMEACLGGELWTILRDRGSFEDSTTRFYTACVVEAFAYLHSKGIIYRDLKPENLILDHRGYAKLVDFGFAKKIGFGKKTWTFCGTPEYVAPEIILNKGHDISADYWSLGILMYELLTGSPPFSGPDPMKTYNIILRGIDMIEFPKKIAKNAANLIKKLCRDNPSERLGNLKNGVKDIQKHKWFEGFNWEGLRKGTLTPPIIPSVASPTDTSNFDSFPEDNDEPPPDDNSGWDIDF

[9] = target: panel of 255 wild-type kinases (Homo sapiens, UniProt P29597); conditions: kinase TYK2, 1 µmol/L single concentration, cited from earlier work
[10] = target: T3, panel of 255 wild-type kinases (Homo sapiens, UniProt Q08881); conditions: kinase ITK, 1 µmol/L single concentration, cited from earlier work
T3 sequence (Q08881 1-620): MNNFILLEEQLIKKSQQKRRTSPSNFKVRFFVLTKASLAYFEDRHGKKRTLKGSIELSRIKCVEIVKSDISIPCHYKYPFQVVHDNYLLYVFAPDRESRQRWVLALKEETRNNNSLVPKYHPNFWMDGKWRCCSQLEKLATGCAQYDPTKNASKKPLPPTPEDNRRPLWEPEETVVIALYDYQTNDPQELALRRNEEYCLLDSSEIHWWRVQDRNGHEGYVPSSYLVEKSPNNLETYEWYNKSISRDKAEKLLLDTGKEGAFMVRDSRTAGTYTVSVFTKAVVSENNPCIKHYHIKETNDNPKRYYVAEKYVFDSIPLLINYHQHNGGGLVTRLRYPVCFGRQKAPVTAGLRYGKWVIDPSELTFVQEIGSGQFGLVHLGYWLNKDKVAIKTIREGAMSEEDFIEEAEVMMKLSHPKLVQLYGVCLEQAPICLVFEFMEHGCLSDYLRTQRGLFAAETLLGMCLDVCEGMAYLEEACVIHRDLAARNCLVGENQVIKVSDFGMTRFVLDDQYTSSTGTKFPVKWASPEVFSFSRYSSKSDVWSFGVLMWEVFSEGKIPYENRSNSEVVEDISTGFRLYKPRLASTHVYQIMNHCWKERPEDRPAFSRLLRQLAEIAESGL

[11] = target: panel of 255 wild-type kinases (Homo sapiens, UniProt P07947); conditions: kinase YES, 1 µmol/L single concentration, cited from earlier work
[12] = ref DOI: 10.1158/1535-7163.MCT-18-0877
[13] = ref DOI: 10.1371/journal.pone.0092146

SMILES: O=C(c1ccc(F)c(F)c1Nc1ccc(I)cc1F)N1CC(O)([C@@H]2CCCCN2)C1 [cobimetinib]
- %-inhibition at 1 µmol/L, HIPK3 [1, 12]: 2.74%
- %-inhibition at 1 µmol/L, MAPKAPK2 [2, 12]: -7%
- %-inhibition CaMK1δ [3, 12]: 1%
- %-inhibition, MST2 [4, 12]: 1.8%
- %-inhibition at 1 µmol/L, QIK [5, 12]: 2.37%
- %-inhibition BLK [6, 12]: 10%
- %-inhibition at 1 µmol/L, PYK2 [7, 12]: 2.5%
- %-inhibition at 1 µmol/L, PGK [8, 12]: 2.54%
- %-inhibition at 1 µmol/L, TYK2 [9, 12]: 6.35%
- %-inhibition at 1 µmol/L, ITK [10, 12]: 4%
- %-inhibition at 1 µmol/L, YES [11, 12]: -0.706%

SMILES: CO[C@@H]1[C@H](N(C)C(=O)c2ccccc2)C[C@H]2O[C@]1(C)n1c3ccccc3c3c4c(c5c6ccccc6n2c5c31)C(=O)NC4 [midostaurin]
- %-inhibition at 1 µmol/L, MAPKAPK2 [2, 12]: -12%
- %-inhibition, MST2 [4, 12]: 98%
- %-inhibition BLK [6, 12]: 84%
- %-inhibition at 1 µmol/L, PYK2 [7, 12]: 72%
- %-inhibition at 1 µmol/L, PGK [8, 12]: 98%
- %-inhibition at 1 µmol/L, ITK [10, 12]: 73%
- %-inhibition at 1 µmol/L, YES [11, 12]: 89%

SMILES: C=CC(=O)N1CCC[C@@H](n2nc(-c3ccc(Oc4ccccc4)cc3)c3c(N)ncnc32)C1 [ibrutinib]
- %-inhibition at 1 µmol/L, HIPK3 [1, 12]: 1.67%
- %-inhibition at 1 µmol/L, MAPKAPK2 [2, 12]: -13%
- %-inhibition CaMK1δ [3, 12]: 5%
- %-inhibition, MST2 [4, 12]: 17%
- %-inhibition at 1 µmol/L, QIK [5, 12]: 4.7%
- %-inhibition BLK [6, 12]: 101%
- %-inhibition at 1 µmol/L, PYK2 [7, 12]: 3.37%
- %-inhibition at 1 µmol/L, PGK [8, 12]: 1.89%
- %-inhibition at 1 µmol/L, TYK2 [9, 12]: 7%
- %-inhibition at 1 µmol/L, ITK [10, 12]: 93%

SMILES: C[C@@H](Oc1cc(-c2cnn(C3CCNCC3)c2)cnc1N)c1c(Cl)ccc(F)c1Cl [crizotinib]
- %-inhibition at 1 µmol/L, HIPK3 [1, 13]: -6%
- %-inhibition at 1 µmol/L, MAPKAPK2 [2, 13]: -17%
- %-inhibition CaMK1δ [3, 13]: -4%
- %-inhibition, MST2 [4, 13]: 13%
- %-inhibition at 1 µmol/L, QIK [5, 13]: 38%
- %-inhibition at 1 µmol/L, PGK [8, 13]: -2.6%
- %-inhibition at 1 µmol/L, TYK2 [9, 13]: 21%
- %-inhibition at 1 µmol/L, ITK [10, 13]: 63%
- %-inhibition at 1 µmol/L, YES [11, 13]: 65%

SMILES: Cc1cc(Nc2ncc(Cl)c(Nc3ccccc3S(=O)(=O)C(C)C)n2)c(OC(C)C)cc1C1CCNCC1 [ceritinib]
- %-inhibition at 1 µmol/L, HIPK3 [1, 12]: 7.48%
- %-inhibition at 1 µmol/L, MAPKAPK2 [2, 12]: -14%
- %-inhibition CaMK1δ [3, 12]: 48%
- %-inhibition, MST2 [4, 12]: 2.76%
- %-inhibition at 1 µmol/L, QIK [5, 12]: 7.41%
- %-inhibition BLK [6, 12]: 2%
- %-inhibition at 1 µmol/L, PYK2 [7, 12]: 100%
- %-inhibition at 1 µmol/L, PGK [8, 12]: 38%
- %-inhibition at 1 µmol/L, TYK2 [9, 12]: 13%
- %-inhibition at 1 µmol/L, ITK [10, 12]: 11%
- %-inhibition at 1 µmol/L, YES [11, 12]: 31%

SMILES: CC(C)(C)c1nc(-c2cccc(NS(=O)(=O)c3c(F)cccc3F)c2F)c(-c2ccnc(N)n2)s1 [dabrafenib]
- %-inhibition at 1 µmol/L, HIPK3 [1, 13]: 65%
- %-inhibition at 1 µmol/L, QIK [5, 13]: 80%
- %-inhibition BLK [6, 13]: 80%
- %-inhibition at 1 µmol/L, PYK2 [7, 13]: 56%
- %-inhibition at 1 µmol/L, TYK2 [9, 13]: 10%
- %-inhibition at 1 µmol/L, ITK [10, 13]: 49%

SMILES: C=CC(=O)Nc1cc(Nc2nccc(-c3cn(C)c4ccccc34)n2)c(OC)cc1N(C)CCN(C)C [osimertinib]
- %-inhibition at 1 µmol/L, HIPK3 [1, 12]: 20%
- %-inhibition at 1 µmol/L, MAPKAPK2 [2, 12]: -9%
- %-inhibition CaMK1δ [3, 12]: 9%
- %-inhibition at 1 µmol/L, QIK [5, 12]: 33%
- %-inhibition BLK [6, 12]: 66%
- %-inhibition at 1 µmol/L, PYK2 [7, 12]: 62%
- %-inhibition at 1 µmol/L, PGK [8, 12]: 3.61%
- %-inhibition at 1 µmol/L, TYK2 [9, 12]: 9%
- %-inhibition at 1 µmol/L, ITK [10, 12]: 62%
- %-inhibition at 1 µmol/L, YES [11, 12]: 13%

SMILES: CC#CC(=O)N1CCC[C@H]1c1nc(-c2ccc(C(=O)Nc3ccccn3)cc2)c2c(N)nccn12 [acalabrutinib]
- %-inhibition at 1 µmol/L, HIPK3 [1, 12]: -12%
- %-inhibition at 1 µmol/L, MAPKAPK2 [2, 12]: -21%
- %-inhibition CaMK1δ [3, 12]: -5%
- %-inhibition, MST2 [4, 12]: -3.46%
- %-inhibition at 1 µmol/L, QIK [5, 12]: -0.215%
- %-inhibition BLK [6, 12]: 8.43%
- %-inhibition at 1 µmol/L, PYK2 [7, 12]: -3.55%
- %-inhibition at 1 µmol/L, PGK [8, 12]: -3.7%
- %-inhibition at 1 µmol/L, TYK2 [9, 12]: 13%
- %-inhibition at 1 µmol/L, ITK [10, 12]: 0.871%
- %-inhibition at 1 µmol/L, YES [11, 12]: 22%

SMILES: CCc1cc2c(cc1N1CCC(N3CCOCC3)CC1)C(C)(C)c1[nH]c3cc(C#N)ccc3c1C2=O [alectinib]
- %-inhibition at 1 µmol/L, HIPK3 [1, 12]: 3.19%
- %-inhibition at 1 µmol/L, MAPKAPK2 [2, 12]: -5.66%
- %-inhibition CaMK1δ [3, 12]: -3.42%
- %-inhibition, MST2 [4, 12]: -1.42%
- %-inhibition at 1 µmol/L, QIK [5, 12]: 3%
- %-inhibition BLK [6, 12]: 17%
- %-inhibition at 1 µmol/L, PYK2 [7, 12]: 47%
- %-inhibition at 1 µmol/L, PGK [8, 12]: -1.53%
- %-inhibition at 1 µmol/L, TYK2 [9, 12]: 14%
- %-inhibition at 1 µmol/L, YES [11, 12]: 44%
